Experimental data: ChEMBL document CHEMBL4622872, “Discovery of DS-1971a, a Potent, Selective NaV1.7 Inhibitor” (J Med Chem, 2020)
≈ marks a conversion by molar mass, not a printed value.

Tests used:
[1] = Distribution coefficient, log D of the compound in 1-octanol and PBS buffer at pH 7.4 measured after 30 mins by LC-MS analysis; assay type: physicochemical; details: 1-octanol/PBS buffer
[2] = Aqueous thermodynamic solubility of the compound at pH 6.8 measured after 4 hrs by UV-HPLC analysis; assay type: physicochemical; details: buffer, pH 6.8; read-out: Therm_solubility
[3] = Stability of the compound in mouse liver microsomes assessed as parent compound remaining measured after 0.5 hrs; assay type: ADME, Microsome; details: mouse liver microsomes, read-out: Stability

Row | SMILES | logD at 0.5 h [1] | solubility thermodynamic at 4 h [2] [µM] | remaining at 0.5 h [3] [%]
1 | Cc1cc(S(=O)(=O)Nc2ccncn2)c(F)cc1O[C@H]1CCC[C@@H]1c1ccnn1C (racemic) | 0.9 | 1200 (≈ 518 µg/mL) | 87
2 | Cn1nccc1[C@H]1CCC[C@@H]1Oc1cc(F)c(S(=O)(=O)Nc2ccncn2)cc1Cl (racemic) | 0.9 | 240 (≈ 108 µg/mL) | 88
3 | Cc1cc(S(=O)(=O)Nc2ccncn2)c(F)cc1O[C@H]1CCCC[C@@H]1c1ccnn1C (racemic) | 0.9 | 1800 (≈ 802 µg/mL) | 75
4 | Cn1nccc1[C@H]1CCCC[C@@H]1Oc1cc(F)c(S(=O)(=O)Nc2ccncn2)cc1F (racemic) | 0.3 | 1900 (≈ 854 µg/mL) | 80

The remaining lines, values ahead:

Row | logD at 0.5 h [1] | solubility thermodynamic at 4 h [2] [µM] | remaining at 0.5 h [3] [%] | SMILES
5 | 0.6 | > 1900 | 91 | Cn1nccc1[C@H]1CCC[C@@H]1Oc1cc(F)c(S(=O)(=O)Nc2ncns2)cc1F (racemic)
6 | 2.1 | 250 (≈ 110 µg/mL) | 54 | Cn1nccc1[C@H]1CCC[C@@H]1Oc1cc(F)c(S(=O)(=O)Nc2nccs2)cc1F (racemic)
7 | 1.8 | 660 (≈ 300 µg/mL) | 28 | Cn1nccc1[C@H]1CCCC[C@@H]1Oc1cc(F)c(S(=O)(=O)Nc2cscn2)cc1F (racemic)
8 | 0.9 | 1800 (≈ 820 µg/mL) | 69 | Cc1nsc(NS(=O)(=O)c2cc(F)c(O[C@H]3CCC[C@@H]3c3ccnn3C)cc2F)n1 (racemic)
